Reference: patent US8664271B2, “Stabilized leukotriene B4 (LTB4) agent pharmaceutical formulation” (LTB4 Sweden AB, priority 2004, dated 2014)

How the values were obtained:
[1] = Forced degradation of ethanolic solutions of LTB4 (acid form and Na salt); format: physicochemical
Procedure: The ethanolic solution of LTB4 (acid form) (EtOH/water, 95/5) obtained from the manufacturer (Cascade Biochem, UK) was diluted with EtOH/water, 95/5 to generate ethanolic solutions of LTB4 (acid form) at 9 and 0.9 mg/ml. Ethanolic solutions of the sodium salt of LTB4 at 9 and 0.9 mg/ml were obtained by adding 1.05 equivalent of sodium hydroxide. Solutions of the sodium salt of LTB4 at the concentration of 9 and 0.9 mg/ml in 75/25 EtOH/10 mM glycine in water at pH 10.5 (sodium hydroxide), were obtained by mixing 3 volumes of solutions of the sodium salt of LTB4 at 12 and 1.2 mg/ml in EtOH/water, 95/5 with 1 volume of 40 mM glycine buffer at pH 10.5. Solutions were dispensed in 2 ml vials for storage under air in the dark at −80° C. and 40±5° C. for 17 months prior to reverse phase HPLC analysis of LTB4 and impurities as described in Example 1.

[2] = Stability of freeze-dried LTB4 Na salt solutions (mannitol, with or without HSA); format: physicochemical; conditions: for level of impurities: freeze-dried solution 35 μg/ml, pH 7.5, 4% mannitol
Procedure: Aqueous isotonic LTB4 Na salt solutions at the concentration of 35 μg/ml in phosphate buffered saline (3 mM sodium phosphate buffer, pH 7.5 or 9.5) containing 0.01% EDTA were obtained as described in Example 5. Mannitol was added to all solutions to the final concentration of 4% in order to generate a solid residue (mannitol bread) containing LTB4 Na salt and all components of the excipient upon freeze-drying. Fatty acid free (delipidated) human serum albumine (HSA, Sigma Chemicals, St-Louis, Mo.) was added to some of the solutions to the final concentration of 1 mg/ml prior to final pH adjustment (to 7.5 or 9.5). Solutions were dispensed in 2 ml vials, frozen at −20° C. and freeze-dried. The vials containing the freeze-dried solutions (mannitol breads) were then sealed as described in Example 1 (but under air instead of argon), and stored in the dark at 40±5° C. After 1.5 or 4.5 months, vials were opened and the mannitol breads (containing LTB4) were dissolved using 1 ml of water to regenerate the original LTB4 Na salt solutions at 35 μg/ml. LTB4 and impurities were then analyzed by reverse phase HPLC as described in Example 1.

impurity level ([1]; 0.9 mg/ml in 75/25 EtOH/10 mM glycine pH 10.5, 17 months at 40° C.): 4.3 % of AUC | impurity level ([1]; 0.9 mg/ml in 95/5 EtOH/water, 17 months at 40° C.): 4.9 % of AUC | impurity level ([1]; 9 mg/ml in 75/25 EtOH/10 mM glycine pH 10.5, 17 months at 40° C.): 3.8% | level of impurities ([1]; 9.0 mg/ml in EtOH/water 95/5, 17 months at 40° C., AUC at 270 nm): 5.4 % of AUC | level of impurities ([2]; 1.5 months at 40° C.): 22.7% | level of impurities ([2]; 4.5 months at 40° C.): 51.3% | level of impurities ([2]; redissolved immediately (time 0)): 2.9% | decrease in the level of impurities by addition of HSA ([2]; freeze-dried, pH 7.5, HSA 1 mg/ml, 1.5 months of storage at 40° C.): ~50%
SMILES: CCCCC/C=C\C[C@@H](O)/C=C/C=C/C=C\[C@@H](O)CCCC(=O)[O-].[Na+] [LTB4 Na salt]
effect of elevation of pH from 7.5 to 9.5 prior to freeze-drying ([2]; freeze-dried, 1.5 months (with HSA) or 4.5 months at 40° C.): striking decrease in the level of impurities
